The record followed here is patent US20080260726A1, “Organic Compounds” (priority 2005, published 2008).

Test [1] relates to mucus secretion in differentiated HBECs. The experiment in a line: ATP-γS-induced mucin secretion in differentiated HBECs, enzyme-linked lectin assay (ELLA). In kind it is cell-based, human. As to the method: The effect of siRNA knockdown of CTSC expression on mucin secretion in differentiated HBECs is examined using the CTSC SMARTPOOL at different concentrations (0.3-10 nM). Adenosine triphosphate is used as a mucin secretagogue and secreted mucin is measured using an enzyme-linked lectin assay (ELLA; Kemp, Sugar and Jackson Am. J. Respir. Cell Mol. Biol. (2004) 31: 446-455). HBECs (16.5×10^4 cells per insert from donor 2F1S78) are transfected and cultured using the 9 day differentiation model as described in Example 2. At day 9 (6 days ALI) HBEC inserts are exposed to 100 μM ATP-γS for 10 minutes and supernatants are removed for analysis by ELLA. ATP-γS-induced mucus secretion is inhibited at all CTSC siRNA SMARTPOOL concentrations, but is unaffected by either cyclophilin B siRNA or Lipofectamine alone.
The effect of Compound A on mucus secretion in the 9 day model is examined by adding the compound at various concentrations (0.1-10 μM) to the apical surface in minimal medium containing 0.1% dimethyl sulphoxide (DMSO) and incubating for 30 minutes at 37° C., followed by 10 minutes exposure to 100 μM ATP-γS.

Test [2] deals with goblet cell formation in HBECs. The experiment in a line: Goblet cell formation with Compound A in basolateral medium, 45M1 and AB/PAS staining. Type of test: cell-based, human. Here is the method:
The siRNA duplexes are transfected into HBECs using […]. Transfection medium is prepared by mixing OPTI-MEM® I reduced serum medium (Invitrogen Corp.), siRNA duplex (5× final concentration) and Lipofectamine 2000™ (5× final concentration), incubating at room temperature for 30 minutes, then diluting 1:5 in antibiotic free differentiation medium (DIFF-AB medium; bronchial epithelial basal medium and Dulbeccos modified eagles medium [50:50] plus bronchial epithelial growth medium SingleQuots [bovine pituitary extract, insulin, hydrocortisone, all-trans retinoic acid, transferrin, epinephrine, tri-iodothyronine and human epidermal growth factor at the recommended concentrations, but no tri-iodothyronine and gentamycin/amphotericin B], all obtained from BioWhittaker) prior to addition to HBECs. For these experiments an abbreviated version of the HBEC model is used in which HBECs are maintained as submerged cultures for 3 days and then transferred to ALI for 6 days. Cells from a passage 2 (P2) stock of HBEC donor 2F1578 are cultured as described in Atherton et al. Am. J. Physiol. Lung Cell Mol. Physiol. (2003) 285: L730-L739 to approximately 85% confluence before harvesting for transfection. After trypsinisation and recovery by centrifugation, cells are resuspended at a density of 16.5×10^4 cells per ml in DIFF-AB medium containing siRNA duplex (10 nM) and Lipofectamine 2000™ (1 μl per ml) and seeded onto 12 well Transwell Clear inserts. One ml of HBEC/DIFF-AB medium/siRNA/lipofectamine 2000™ mix is deposited onto each insert and 1 ml of DIFF-AB medium is added to the basolateral chamber of each insert. After 24 hours (day 1 of submerged culture), all media is aspirated (apically and basolaterally) and replaced with 0.5 ml apically and 1 ml basolaterally of DIFF-AB medium containing 50 μg per ml gentamycin but no amphotericin B (DIFF-AB+G). On day 3, DIFF-AB+G medium is aspirated from the apical and basolateral surfaces and HBECs are cultured at ALI with DIFF-AB+G medium containing 1 ng per ml IL13. All cells are incubated at 37° C., 5% CO2 and 95% relative humidity. The basolateral medium is aspirated at days 5 and 7 and replaced with 1 ml DIFF-AB+G medium containing IL13. In addition the apical surface is rinsed with 0.5 ml phosphate buffered saline (PBS) to remove accumulated cell debris/mucus. Cells are harvested for total RNA extraction at days 3, 5, 7 and 9 as described above, and for goblet cell analysis by histology at day 9. For histology, inserts are fixed by the addition of 0.5 ml 10% neutral buffered formalin (NBF) to the apical surface followed by 1 ml NBF to the basolateral surface. After 24 hours of fixation the inserts are bisected and processed to RALwax through graded industrial methylated spirit (IMS) and chloroform. Both halves of the insert are embedded on edge using fresh RALwax. The paraffin blocks are sectioned at […] and stained with 45M1 antibody (an anti-MUCSAC antibody obtained from Lab-Vision Neomarkers) and alcian blue/haematoxylin and eosin (AB/H&E) according to standard histological protocols to enable detection of mucin and discrimination of individual cells by nuclear staining. The stained slides are examined microscopically.
[…] The effect on goblet cell formation is examined histologically by 45M1 and AB/PAS staining per unit length of epithelium.
A modest effect at 10 μM is seen, with no effect at 0.1 and 1 μM.

Each structure is given as a SMILES string.

With `CCCS(=O)(=O)Nc1ccc(Cc2cc3cnc(C#N)nc3n2CC(C)(C)C)cc1` [Compound A, propane-1-sulfonic acid {4-[2-cyano-7-(2,2-dimethyl-propyl)-7H-pyrrolo[2,3-d]pyrimidin-6-ylmethyl]-phenyl}-amide], the “mucus secretion (Vehicle = 100.00)” value in test [1] (Compd A (0.1 μM), 30 minutes, then 100 μM ATP-γS 10 minutes) was determined as 203.51; in test [1] (Compd A (10 μM) only, no ATP, 30 minutes apical, 9 day model) it was 88.99; in test [1] (Compd A (10 μM), first column so headed, 30 minutes, then 100 μM ATP-γS 10 minutes), 120.18; in test [1] (Compd A (10 μM), second column so headed, 30 minutes, then 100 μM ATP-γS 10 minutes), 177.02. In addition, the “mucus secretion (in words)” value in test [1] (Compound A 0.1-10 μM, 100 μM ATP-γS) was “dose-dependently inhibits”. Further, the “45M1 and AB/PAS staining per unit length of epithelium” value in test [2] (Table 6, 9 day model (6 days ALI), 0.1 uM + IL13) is “no effect”; in test [2] (Table 6, 9 day model (6 days ALI), 0.1 uM + IL13, listed as Compd A) it was 2.533; in test [2] (Table 6, 9 day model (6 days ALI), 1 uM + IL13) it was “no effect”; in test [2] (Table 6, 9 day model (6 days ALI), 1 uM + IL13, listed as Compd A), 2.621; in test [2] (Table 6, 9 day model (6 days ALI), 10 uM + IL13), “modest effect”; in test [2] (Table 6, 9 day model (6 days ALI), 10 uM + IL13, listed as Compd A), 1.424. Moreover, the “45M1 and AB/PAS staining per unit length of epithelium” value in test [2] (Table 6, 9 day model (6 days ALI), 10 uM, no IL13) is listed as 0.300; in test [2] (Table 7, 11 days at ALI, 0.1 uM + IL-13 1 ng/ml), 3.609; in test [2] (Table 7, 11 days at ALI, 1 uM + IL-13 1 ng/ml) it was 3.700; in test [2] (Table 7, 11 days at ALI, 10 uM + IL-13 1 ng/ml) it was “greater inhibition”; in test [2] (Table 7, 11 days at ALI, 10 uM + IL-13 1 ng/ml, listed as Compd A), 0.886; in test [2] (Table 7, 11 days at ALI, 10 uM, no IL-13), 0.153.
